Measurements as given in patent publication US9623109B2, “Methods of killing cells and use of same in prevention and treatment of cancer” (Yissum Research Development Company of the Hebrew …, priority 2008, dated 2017).

Legend:
[1] = target: CKI-delta (Homo sapiens, UniProt P48730); details: cited from earlier work
[2] = target: CKI-epsilon (Homo sapiens, UniProt P49674); details: cited from earlier work
[3] = tested on: CKIα KO mice; assay: Sulindac feeding of CKIα knockout mice (gut phenotype, qRT-PCR, Western, IHC, SA-β-gal); format: in vivo, mouse
Protocol: Tamoxifen (Sigma) was dissolved in Corn Oil (Sigma) to a 20 mg/ml concentration. Mice at 2-3 months were injected subcutaneously with 2 mg Tamoxifen per injection, 5-7 injections every other day, over a 10-14 day period. Mice were sacrificed 4-5 days after the last injection. The colon and part of the small intestine were taken for histology, together with the stomach, liver, pancreas, spleen, kidney, heart and lung. Enterocytes (intestinal epithelial cells) were isolated from most of the small intestine. Enterocytes were used for RNA and protein assays.
All tissues were fixated in 4% formaldehyde for 24 hours, paraffin embedded and sectioned at 5 μm for hematoxylin/eosin (H&E) staining and immunohistochemistry. BrdU (Amersham) was injected intraperitonally at 100 μl/10 g body weight, 2 hours prior to sacrifice. The primary antibodies used were goat anti-CKIα (1:100; Santa Cruz), rabbit anti-Cleaved Caspase-3 (1:100; Cell Signaling), rabbit CM5 (anti-mouse p53) (1:400; Novocastra), mouse anti-β-catenin (1:200; BD transduction), mouse anti-BrdU (1:100; NeoMarkers), rabbit anti-Cyclin D1 (1:125; Lab Vision), mouse anti-p21 (1:50; Santa Cruz), mouse anti-γH2AX (Ser139) (1:100; Upstate), mouse anti-IL-8 (1:125; Bender), rabbit anti-Ki67 (1:300; NeoMarkers). The secondary antibodies used for immunohistochemistry were HRP-polymer anti-Rabbit and anti-Goat (Nichirei), HRP-polymer Mouse on Mouse kit (Nichirei), Mach2 anti mouse-HRP polymer (Biocare) and Mouse-Envision Plus (Dako). HRP was visualized with DAB chromogen (Thermo Scientific) and nuclear counterstain was hemotoxylin (BioOptica). The secondary antibody used for immunofluorescence was goat anti mouse Alexa-488 (1:1000; Molecular Probes). The nuclear counterstain used for immunofluorescence was Hoechst (1.5 μg/ml, Molecular Probes).
For enterocyte isolation, ˜⅔ of the small intestine was washed and minced into small pieces in PBS/1 mM DTT. Intestine was separated into single cells in Ca^2+, Mg^2+ free HBSS containing 10 mM HEPES, 5 mM EDTA and 0.5 mM DTT, at 37° C. for 30 minutes with slow agitation. Lysate was mixed vigorously and cell suspension was centrifuged. Cell pellets were frozen in liquid N2 and stored at −80° C. Protein was extracted from cell pellets in cell lysis buffer containing protease and phosphatase inhibitors. Primary antibodies used in Western blotting were goat-anti CKIα (1:100; Santa Cruz), mouse anti-CKIε (1:250; Santa Cruz), mouse anti-β-catenin (1:2500; BD transduction), rabbit anti-Phospho-β-catenin (Thr41/Ser45) (1:750, Cell Signaling), rabbit CM5 (anti-mouse p53) (1:400; Novocastra), mouse anti-human p53 (1:20; DO-1 hybridoma), rabbit anti-Phospho-p53 (Ser15) (1:1000; Cell Signaling), rabbit anti-Cyclin D1 (1:300; Lab Vision), rabbit anti-Cyclin D2 (1:1000; Santa Cruz), rabbit-anti Bax (1:200; Santa Cruz), mouse anti-MdmX (1:1000; Sigma), goat anti-MdmX (1:200; Santa Cruz), mouse anti-GSK3β (1:2500; BD transduction) rabbit anti-Cleaved Caspase-3 (1:1000; Cell Signaling), rabbit anti-PARP (1:1000; Cell Signaling), mouse anti-p21 (1:200; Santa Cruz), mouse anti-E2F1 (1:500, Santa Cruz), mouse anti-γH2AX (Ser139) (1:1000; Upstate), rabbit anti-Phospho-Chk2 (Thr68) (1:1000; Cell Signaling), rabbit anti-Hsp90 (1:5000; Calbiochem). Secondary antibodies used in Western blotting were HRP-conjugated, goat anti-rabbit, goat anti-mouse and rabbit anti-goat (1:10,000; Jackson). ECL (Amersham) was used for HRP detection. […]

[4] = tested on: RKO colorectal carcinoma cells; assay: CKIδ/ε or CKIδ shRNA knockdown in RKO colorectal carcinoma cells (DNA damage response); format: cell-based; details: CKIδ depletion, human colorectal carcinoma cell line, FIG. 21
Protocol: FIG. 21 is a photograph illustrating the DNA damage response (DDR) upon CKIδ/ε ablation.
For enterocyte isolation, ˜⅔ of the small intestine was washed and minced into small pieces in PBS/1 mM DTT. Intestine was separated into single cells in Ca^2+, Mg^2+ free HBSS containing 10 mM HEPES, 5 mM EDTA and 0.5 mM DTT, at 37° C. for 30 minutes with slow agitation. Lysate was mixed vigorously and cell suspension was centrifuged. Cell pellets were frozen in liquid N2 and stored at −80° C. Protein was extracted from cell pellets in cell lysis buffer containing protease and phosphatase inhibitors. […]
RKO and HCT116 cells were cultured in Dulbecco's modified Eagle's medium, supplemented with 10% fetal calf serum (Sigma). […] CKIα expression levels were determined before each experiment to ensure adequate knockdown. […]

CKI-delta, sequence (P48730 whole entry): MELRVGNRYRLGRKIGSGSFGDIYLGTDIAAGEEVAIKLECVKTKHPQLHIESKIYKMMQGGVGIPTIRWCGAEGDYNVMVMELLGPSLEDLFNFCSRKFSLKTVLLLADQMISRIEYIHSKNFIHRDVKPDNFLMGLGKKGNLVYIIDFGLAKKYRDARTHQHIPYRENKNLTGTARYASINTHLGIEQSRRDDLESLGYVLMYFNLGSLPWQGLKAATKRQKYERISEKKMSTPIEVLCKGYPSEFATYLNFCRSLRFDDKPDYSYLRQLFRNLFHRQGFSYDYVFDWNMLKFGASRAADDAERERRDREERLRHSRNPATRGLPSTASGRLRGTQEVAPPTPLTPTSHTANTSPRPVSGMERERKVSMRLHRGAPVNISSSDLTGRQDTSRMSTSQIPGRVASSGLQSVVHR
CKI-epsilon, sequence (P49674 whole entry): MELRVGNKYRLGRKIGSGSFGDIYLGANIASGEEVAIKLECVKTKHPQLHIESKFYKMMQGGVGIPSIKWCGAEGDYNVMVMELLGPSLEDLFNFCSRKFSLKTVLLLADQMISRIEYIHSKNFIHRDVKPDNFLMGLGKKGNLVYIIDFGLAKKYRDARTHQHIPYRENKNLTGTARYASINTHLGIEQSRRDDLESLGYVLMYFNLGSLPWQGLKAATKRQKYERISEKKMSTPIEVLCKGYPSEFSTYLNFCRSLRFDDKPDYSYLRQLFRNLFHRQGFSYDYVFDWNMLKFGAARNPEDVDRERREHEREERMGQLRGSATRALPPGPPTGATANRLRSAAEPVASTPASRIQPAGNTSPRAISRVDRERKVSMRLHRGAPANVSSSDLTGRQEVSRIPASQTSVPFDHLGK

COc1cc(OC)c(C=C2C(O)=Nc3ccccc32)c(OC)c1 [IC261]
inhibition of CKI-delta [1]: specific inhibitor | inhibition of CKI-epsilon [2]: specific inhibitor

CC1=C(CC(=O)O)c2cc(F)ccc2/C1=C\c1ccc([S+](C)[O-])cc1 (centres unmarked) [Sulindac]
cell-non autonomous effects of CKIα deficiency ([3]; CKIα KO mice, Sulindac in the drinking water, FIG. 14): prevents | overall phenotype of the gut tissue: severity of dysplasia ([3]; CKIα knockout mice fed Sulindac): greatly reduced | markers for Wnt activation, inflammation, senescence and cell growth arrest, including CyclinD1, Troy, Cox2, SA-β-gal and p21 ([3]; CKIα knockout mice fed Sulindac for the duration of the experiment): significant reduction | p53-independent senescence phenotype (SA β-gal) induced by CKIα deletion ([3]; intestines of CKIα KO mice treated with Sulindac, FIG. 13): reversed | clusters of cells with high grade dysplasia in the villi ([3]; sulindac fed CKIα KO mice, never found in control mutant mice): many clusters of cells were found with high grade dysplasia

CKIδ shRNA: shRNA sequence for CKIδ alone (SEQ ID NO: 5), from Open Biosystems, cloned in pLKO vector (CCGGCCCATCGAAGTGTTGTGTAAACTCGAGTTTACACAACACTTCGATGGGTTTTT)
p53 protein [4]: induced p53 stabilization
